According to article PMC7872314, “Modeling Bioavailable Concentrations in Zebrafish Cell Lines and Embryos Increases the Correlation of Toxicity Potencies across Test Systems” (Environmental Science & Technology, 2020):
Like-named read-outs stand apart in the source and are kept apart here.

How the values were obtained:
[1] = tested on: ZF4 (fibroblasts) cell line; assay: MTS assay (MTS/BCA multiplex), NAD(P)H metabolism; format: cell-based, zebrafish (Danio rerio); details: Danio rerio, Fibroblast
[2] = tested on: ZFL (hepatocytes) cell line; assay: cells; format: cell-based, zebrafish (Danio rerio); details: Danio rerio, Hepatocyte
[3] = tested on: ZF4 (fibroblasts) cell line; assay: BCA assay (MTS/BCA multiplex), protein amount; format: cell-based, zebrafish (Danio rerio); details: Danio rerio, Fibroblast
[4] = tested on: ZFL (hepatocytes) cell line; assay: cells; format: cell-based, zebrafish (Danio rerio); details: Danio rerio, Hepatocyte; remark: listed apart in the source
[5] = tested on: ZF4 (fibroblasts) cell line; assay: ATP assay (ATP/LDH multiplex), ATP metabolism; format: cell-based, zebrafish (Danio rerio); details: Danio rerio, Fibroblast
[6] = tested on: ZFL (hepatocytes) cell line; assay: cells; format: cell-based, zebrafish (Danio rerio); details: Danio rerio, Hepatocyte; remark: listed apart in the source
[7] = tested on: ZF4 (fibroblasts) cell line; assay: alamarBlue (AB) endpoint of AB/CFDA/NR multiplex, cellular respiration; format: cell-based, zebrafish (Danio rerio); details: Danio rerio, Fibroblast
[8] = tested on: ZFL (hepatocytes) cell line; assay: cells; format: cell-based, zebrafish (Danio rerio); details: Danio rerio, Hepatocyte; remark: listed apart in the source
[9] = tested on: ZF4 (fibroblasts) cell line; assay: CFDA endpoint of AB/CFDA/NR multiplex, membrane stability; format: cell-based, zebrafish (Danio rerio); details: Danio rerio, Fibroblast
[10] = tested on: ZFL (hepatocytes) cell line; assay: cells; format: cell-based, zebrafish (Danio rerio); details: Danio rerio, Hepatocyte; remark: listed apart in the source
[11] = tested on: ZF4 (fibroblasts) cell line; assay: Neutral red, absorbance (NRa), AB/CFDA/NR multiplex, lysosome stability; format: cell-based, zebrafish (Danio rerio); details: Danio rerio, Fibroblast
[12] = tested on: ZFL (hepatocytes) cell line; assay: cells; format: cell-based, zebrafish (Danio rerio); details: Danio rerio, Hepatocyte; remark: listed apart in the source
[13] = tested on: ZF4 (fibroblasts) cell line; assay: Neutral red, fluorescence (NRf), AB/CFDA/NR multiplex, lysosome stability; format: cell-based, zebrafish (Danio rerio); details: Danio rerio, Fibroblast
[14] = tested on: ZFL (hepatocytes) cell line; assay: cells; format: cell-based, zebrafish (Danio rerio); details: Danio rerio, Hepatocyte; remark: listed apart in the source
[15] = tested on: zebrafish embryos; assay: animal or person; format: in vivo, zebrafish (Danio rerio); details: for EC50: Danio rerio
[16] = tested on: ZF4 and ZFL cell lines; assay: Cytotoxicity assays, all endpoints, both cell lines (mean/range); format: cell-based, zebrafish (Danio rerio); details: 48 h
[17] = tested on: zebrafish embryos; set-up: method as in earlier work; details: nominal, cited from earlier work
[18] = tested on: diverse mammalian cell assay results; set-up: method as in https://comptox.epa.gov/dashboard/; details: COMPTOX; ref https://comptox.epa.gov/dashboard/; read-out: median AC50; cited from earlier work
[19] = ref Comptox, PubChem or DrugBank; cited from earlier work

In the case of `CCCSc1ccc2nc(NC(=O)OC)[nH]c2c1` [Albendazole, albendazole], the IC50 ([1]; MTS - ZF4, log10 of IC50, read-out: LogIC50 (converted)) is reported as 10100 nM, the IC50 ([1]; MTS - ZF4, read-out: IC50) is reported as 10100 nM and the IC50 ([1]; ZF4, 48 h exposure, nominal, log10, read-out: logIC50 (log10 IC50;nom) MTS (converted)) is reported as 10000 nM. For the same compound, the IC50 ([1]; ZF4, 48 h exposure, nominal, read-out: IC50;nom MTS) was 10100 nM, the IC50 ([2]; MTS - ZFL, log10 of IC50, read-out: LogIC50 (converted)) was 418 nM and the IC50 ([2]; MTS - ZFL, read-out: IC50) was 418 nM. For the same compound, the IC50 ([2]; ZFL, 48 h exposure, nominal, log10, read-out: logIC50 (log10 IC50;nom) MTS (converted)) was 417 nM, the IC50 ([2]; ZFL, 48 h exposure, nominal, read-out: IC50;nom MTS) was 418 nM and the IC50 ([3]; BCA - ZF4, log10 of IC50, read-out: LogIC50 (converted)) was 555 nM. The IC50 ([3]; BCA - ZF4, read-out: IC50) was 555 nM, the IC50 ([3]; ZF4, 48 h exposure, nominal, log10, read-out: logIC50 (log10 IC50;nom) BCA (converted)) was 550 nM and the IC50 ([3]; ZF4, 48 h exposure, nominal, read-out: IC50;nom BCA) was 555 nM. For the same compound, the IC50 ([4]; BCA - ZFL, log10 of IC50, read-out: LogIC50 (converted)) was 30.9 nM, the IC50 ([4]; BCA - ZFL, read-out: IC50) was 30.9 nM and the IC50 ([4]; ZFL, 48 h exposure, nominal, log10, read-out: logIC50 (log10 IC50;nom) BCA (converted)) was 30.9 nM. The IC50 ([4]; ZFL, 48 h exposure, nominal, read-out: IC50;nom BCA) was 30.9 nM, the IC50 ([5]; ATP - ZF4, log10 of IC50, read-out: LogIC50 (converted)) was 3250 nM and the IC50 ([5]; ATP - ZF4, read-out: IC50) was 3250 nM. For the same compound, the IC50 ([5]; ZF4, 48 h exposure, nominal, log10, read-out: logIC50 (log10 IC50;nom) ATP (converted)) was 3240 nM, the IC50 ([5]; ZF4, 48 h exposure, nominal, read-out: IC50;nom ATP) was 3250 nM and the IC50 ([6]; ATP - ZFL, log10 of IC50, read-out: LogIC50 (converted)) was 542 nM. For the same compound, the IC50 ([6]; ATP - ZFL, read-out: IC50) was 542 nM, the IC50 ([6]; ZFL, 48 h exposure, nominal, log10, read-out: logIC50 (log10 IC50;nom) ATP (converted)) was 537 nM and the IC50 ([6]; ZFL, 48 h exposure, nominal, read-out: IC50;nom ATP) was 542 nM. It also gave an IC50 ([7]; AB - ZF4, log10 of IC50, read-out: LogIC50 (converted)) of 7790 nM, an IC50 ([7]; AB - ZF4, read-out: IC50) of 7790 nM and an IC50 ([7]; ZF4, 48 h exposure, nominal, log10, read-out: logIC50 (log10 IC50;nom) AB (converted)) of 7760 nM. The IC50 ([7]; ZF4, 48 h exposure, nominal, read-out: IC50;nom AB) was 7790 nM, the IC50 ([8]; AB - ZFL, log10 of IC50, read-out: LogIC50 (converted)) was 3720 nM and the IC50 ([8]; AB - ZFL, read-out: IC50) was 3720 nM. The IC50 ([8]; ZFL, 48 h exposure, nominal, log10, read-out: logIC50 (log10 IC50;nom) AB (converted)) was 3720 nM, the IC50 ([8]; ZFL, 48 h exposure, nominal, read-out: IC50;nom AB) was 3720 nM and the IC50 ([9]; CFDA - ZF4, log10 of IC50, read-out: LogIC50 (converted)) was 75400 nM. It also gave an IC50 ([9]; CFDA - ZF4, read-out: IC50) of 75400 nM, an IC50 ([9]; ZF4, 48 h exposure, nominal, log10, read-out: logIC50 (log10 IC50;nom) CFDA (converted)) of 75900 nM and an IC50 ([9]; ZF4, 48 h exposure, nominal, read-out: IC50;nom CFDA) of 75400 nM. It also gave an IC50 ([10]; CFDA - ZFL, log10 of IC50, read-out: LogIC50 (converted)) of 221000 nM, an IC50 ([10]; CFDA - ZFL, read-out: IC50) of 221000 nM and an IC50 ([10]; ZFL, 48 h exposure, nominal, log10, read-out: logIC50 (log10 IC50;nom) CFDA (converted)) of 219000 nM. The IC50 ([10]; ZFL, 48 h exposure, nominal, read-out: IC50;nom CFDA) was 221000 nM, the IC50 ([11]; NR-abs - ZF4, log10 of IC50, read-out: LogIC50 (converted)) was 2360 nM and the IC50 ([11]; NR-abs - ZF4, read-out: IC50) was 2360 nM. The IC50 ([11]; ZF4, 48 h exposure, nominal, log10, read-out: logIC50 (log10 IC50;nom) NRa (converted)) was 2340 nM, the IC50 ([11]; ZF4, 48 h exposure, nominal, read-out: IC50;nom NRa) was 2360 nM and the IC50 ([11]; ZF4 cell line, NRa endpoint, nominal, read-out: IC50;nom) was 0.63 µg/mL. The IC50 ([12]; NR-abs - ZFL, log10 of IC50, read-out: LogIC50 (converted)) was 904 nM, the IC50 ([12]; NR-abs - ZFL, read-out: IC50) was 904 nM and the IC50 ([12]; ZFL, 48 h exposure, nominal, log10, read-out: logIC50 (log10 IC50;nom) NRa (converted)) was 912 nM. The IC50 ([12]; ZFL, 48 h exposure, nominal, read-out: IC50;nom NRa) was 904 nM, the IC50 ([13]; NR-fluo - ZF4, log10 of IC50, read-out: LogIC50 (converted)) was 3610 nM and the IC50 ([13]; NR-fluo - ZF4, read-out: IC50) was 3610 nM. For the same compound, the IC50 ([13]; ZF4, 48 h exposure, nominal, log10, read-out: logIC50 (log10 IC50;nom) NRf (converted)) was 3630 nM, the IC50 ([13]; ZF4, 48 h exposure, nominal, read-out: IC50;nom NRf) was 3610 nM and the IC50 ([14]; NR-fluo - ZFL, log10 of IC50, read-out: LogIC50 (converted)) was 724 nM. It also gave an IC50 ([14]; NR-fluo - ZFL, read-out: IC50) of 724 nM, an IC50 ([14]; ZFL, 48 h exposure, nominal, log10, read-out: logIC50 (log10 IC50;nom) NRf (converted)) of 724 nM and an IC50 ([14]; ZFL, 48 h exposure, nominal, read-out: IC50;nom NRf) of 724 nM. The “difference in toxicity (EC50;nom) between 48 hpf and 144 hpf” value ([15]; 48 hpf time point less sensitive than 144 hpf) was “approximately the same”, the “log EC50;nom (mFET)” value ([15]; 48 hpf, nominal, log10, listed as Abz) was -6.783 M and the EC50 ([15]; 48 hpf, nominal, log10, read-out: log EC50;nom (mFET) (converted)) was 166 nM. The EC50 ([15]; 48 hpf, nominal, read-out: EC50;nom (embryo)) was 0.05 µg/mL, the EC50 ([15]; read-out: EC50 48hpf) was 165 nM and the EC50 ([15]; read-out: EC50;nom (mFET)) was 165 nM. For the same compound, the IC50 ([16]; Danio rerio, read-out: Mean log IC50nom, mean of all cytotoxicity endpoints (without LDH) in ZF4 and ZFL, 48 h, log10 (converted)) was 2510 nM, the “Mean log IC50nom” value ([16]; mean of all cytotoxicity endpoints (without LDH) in ZF4 and ZFL, log10, listed as Abz) was -5.604 M and the EC50 ([17]; 144 hpf, converted) was 158 nM. The “logEC50 144 hpf” value ([17]; log10) was -6.8 M, the AC50 [18] was 410 nM and the BCF [19] was 41.2. For the same compound, the Physiological charge [19] was 0, the logKoa [19] was 9.35 and the logKow [19] was 3.07. The “pKa (Strongest Acidic)” value [19] was 9.51, the “pKa (Strongest Basic)” value [19] was 4.27 and the “w_solubility (water solubility)” value [19] was 85.2 µM.
